Test [1] relates to neuropathic rats. The test can be described thus: EEG/EMG recording of wakefulness, NREM and REM sleep in neuropathic rats. It counts as in vivo, male Wistar rats. The following applies: for total NREM sleep, relative to NP rats treated with vehicle / total time of wakefulness, relative to NP rats treated with vehicle / REM sleep (total time), relative to NP rats treated with vehicle: WAY 100635 2 mg/kg; for block of the hypnotic effects of CBD (20 mg/kg): WAY 100635 2 mg/kg i.p. 10 min before CBD. The procedure: Animals. The experiments were performed on male Wistar rats weighing 250 g (six weeks). All animals were housed in standardized animal facilities under a 12 h light/dark cycle (lights on at 7 AM) with ad libitum access to food and water. All surgeries and experimental procedures were performed during the light cycle. Experimental protocols were approved by the Animal Ethics Committee of the local institutional committee for animal use and care (McGill University, Qc, Canada). These protocols follow ethical guidelines for investigation of experimental pain in conscious animals of the IASP, the Canadian Institute of Health Research guidelines for animal care and scientific use.
Spared nerve injury (SNI). SNI was performed according to the method of Decosterd and Woolf^35. Rats were deeply anaesthetized with isofluorane (5%), anaesthesia was confirmed by the absence of a nociceptive reflex reaction to a paw pinch. The sciatic nerve was exposed at mid-thigh level distal to the trifurcation and freed of connective tissue; the three peripheral branches (sural, common peroneal, and tibial nerves) of the sciatic nerve were exposed without stretching nerve structures. Both tibial and common peroneal nerves were ligated and transected together. Carprofen (5 mg/kg) was administrated subcutaneously pre-surgery as well as three days every 24 hours post-surgery as analgesic. After SNI, each rat was housed in its home cage for 15 days until the neuropathy is developed.
EEG/EMG Implantation. Neuropathic rats (10 days after surgery) and naïve rats were placed in a stereotaxic frame following isoflurane-induced anesthesia (5%). Anaesthesia was confirmed by the absence of a nociceptive reflex reaction to a paw pinch. For EEG monitoring, three stainless-steel epidural electrodes were positioned through 1.5 mm burr holes: one over the parietal cortex on each side, and the third (as a reference) in the right prefrontal cortex. In rats, their respective locations relative to bregma were −2 mm anteroposterior (AP) and −3 mm lateral (L), −7 mm AP and −3 mm L, and −4.5 mm AP and +3 mm L, according to Paxinos and Watson. For EMG monitoring, three flexible stainless-steel wire electrodes, silicon insulation removed at the terminal 3-4 mm, were implanted into the neck muscles (two bilaterally and one in the middle). Wires were fused with the electrodes and the connectors were fixed to the skull with dental acrylic (Coltene/Whaledent). Carprofen (10mg/kg) was administrated subcutaneously pre-surgery as well as three days every 24 hours post-surgically as analgesic. Each rat was single-caged post-surgery and allowed to recover for the next 5 days^13. 24 hours after surgery, the rats were placed in the recording chamber and connected to a flexible 6-flat wire (3M Scotchflex™) in a freely moving manner for several hours during the subsequent 5 days. No recordings were performed, but tolerance to the cable and sleep behavior were observed. All rats from a home cage were also grouped for one hour each day for socialization to circumvent anxious-depressive-like behavior induced by social isolation^13.
Study design for EEG and EMG assessment. […] […] In another cohort of rats rimonabant (1 mg/kg) was also injected i.p. at 6 A.M. in neuropathic rats.
(§1) EEG and EMG recording. Six days after surgery (16 days post-SNI), mechanical allodynia was assessed via von Frey test, and EEG/EMG was recorded for a period of 6 h (from 6 AM to 12 PM). The treatments (described below) were performed at 6:00 A.M., right after the recording had started. […] Consecutive 10 s epochs were subjected to a fast Fourier transform (FFT), and EEG power spectra density was computed in the frequency range of 0-64 Hz^13.
Analysis of EEG and EMG data. The three classical vigilance states as described in the rat were discriminated on the basis of the cortical EEG and neck EMG activities. […]

For test [2], the system named is neuropathic rats. As to the kind of experiment: EEG power spectra (delta, theta, sigma bands) during NREM and REM sleep. The format is in vivo, male Wistar rats. The procedure: as §1
To determine the variations in power spectra induced by the pharmacological treatment of CBD and antagonists, the power densities were summed up over the frequency band of 0-25 Hz (total power). The data were then standardized by expressing all power spectral densities at the different 0.5 Hz bin frequency ranges (delta, theta, and sigma) as a percentage relative to the total power of the same epoch^16. Frequency ranges were 0-3.5Hz for delta, 4-8.5Hz for theta, and 11-14 Hz for sigma bands. The sum of power densities over a frequency band following treatments were expressed as the percentage difference from that in or naïve+veh or NP+vehicle group in statistical analysis. In the experiments with WAY 100635 the NP+CBD was compared with NP+vehicle, NP+WAY, NP+WAY+CBD.
To assess whether CBD (20 mg/kg) might affect the microarchitecture during the sleep, the intensity Delta (0.5-4 Hz), Theta ([…]) and Sigma (10-15 Hz) waves were measured during 6 hours of light phase in the 3 groups of rats (Naïve, SNI+VEH and SNI+CBD 20mg/kg). Data were converted as a percentage of variation vs. naive animals and One-way ANOVA was performed on the power of delta, theta and sigma waves during NREM and REN sleep.
To assess whether the 5-HT1A selective antagonist WAY 100635 (2 mg/kg) might reverse the effect of CBD (20 mg/kg) in the enhancement of power density (Delta, Theta, and Sigma waves) during sleep, the power spectra were measured for 6 hours in four groups of rats. The first group were NP rats treated with CBD vehicle (n=8), the second group were NP rats treated with WAY 100635 alone at 2 mg/kg (n=6), the third group were NP rats treated with WAY 100635 (2 mg/kg)+CBD (20 mg/kg; n=6), and the fourth group were NP treated with CBD at 20 mg/kg (n=8). Data were converted as a percentage of variation vs NP animals treated with vehicle.

For test [3], the system named is rats. Particulars: rat, in vivo; cited from earlier work.
The mark [4] stands for this setting: 6 h EEG/EMG, i.p., CBD 20 mg/kg.
[5] abbreviates: 6 h EEG/EMG, i.p., CBD 20 mg/kg, listed as WAY.
The mark [6] stands for this setting: 6 h EEG/EMG, i.p., CBD 20 mg/kg, rimonabant 1 mg/kg.
Setting [7] is: NP rats, 6 h EEG/EMG, i.p., CBD 20 mg/kg, rimonabant 1 mg/kg.

Entries after “also recorded” stand apart in the source; their conditions may differ.

On to `COc1ccccc1N1CCN(CCN(C(=O)C2CCCCC2)c2ccccn2)CC1` [WAY 100635], for which the “REM sleep, compared to NP rats treated with CBD 20 mg/kg” value in test [1] (6 h EEG/EMG, WAY 100635 alone i.p.) is given as “decrease in REM sleep”. The “total NREM sleep, relative to NP rats treated with vehicle” value was “statistically reduced the time spent NREM sleep” in test [1] (setting [4]) and “impaired NREM sleep” in test [1] (setting [5]). Besides, the “total time of wakefulness, relative to NP rats treated with vehicle” value is recorded as “increase in wakefulness” in test [1] (setting [4]) and “increased wakefulness” in test [1] (setting [5]). Moreover, the “REM sleep (total time), relative to NP rats treated with vehicle” value in test [1] (setting [6]) is “no statistical difference was detected”. The “total time of wakefulness, relative to NP rats treated with CBD 20 mg/kg” value in test [1] (6 h EEG/EMG, i.p., WAY 100635 2 mg/kg alone or 10 min before CBD 20 mg/kg) is given as “increase in wakefulness”. In addition, in test [1] (NP rats, 6 h EEG/EMG, WAY 100635 (1 mg/kg) as printed, before CBD, p<0.001), the “block of the positive effect of CBD (20 mg/kg) on REM sleep” value is listed as “able to block the positive effect of CBD”. In addition, the “block of the hypnotic effects of CBD (20 mg/kg)” value is on record as “fully prevented” in test [1] (NP rats) and “Blocks the Hypnotic Effects of CBD” in test [1] (NP rats, listed as WAY100635). For the same molecule, the “power of Delta waves during REM sleep, between groups (ANOVA)” value in test [2] (NP rats, 6 h, CBD 20 mg/kg, WAY 100635 2 mg/kg) is “no statistically significant differences between groups”. Moreover, the “block of the theta power increase induced by CBD (20 mg/kg) on NREM sleep” value in test [2] (NP rats, WAY 100635 2 mg/kg, p<0.0003) is “able to block the theta power increase induced by CBD”. Besides, in test [2] (NP rats, WAY 100635 2 mg/kg, p<0.0019), the “block of the effects of CBD (20 mg/kg) on Sigma power during REM sleep” value was “blocks the effects of CBD”. In test [2] (NP rats, WAY 100635 2 mg/kg, p<0.0048), the “block of the Delta power increase induced by CBD (20 mg/kg) on NREM sleep” value is on record as “able to block the Delta power increase induced by CBD”. Besides, in test [2] (NP rats, WAY 100635 2 mg/kg, p<0.0061), the “block of the positive effect of CBD (20 mg/kg) on theta waves during REM sleep” value was “able to block the positive effect of CBD”. Also, the “intensity of Sigma waves during NREM sleep, relative to NP animals administered CBD 20 mg/kg” value in test [2] (WAY 100635 2 mg/kg alone (p<0.038) or WAY 100635+CBD (p<0.0006)) is “differences were detected”.
As for `Cc1c(C(=O)NN2CCCCC2)nn(-c2ccc(Cl)cc2Cl)c1-c1ccc(Cl)cc1` [Rimonabant], the “REM sleep (total time), relative to NP rats treated with vehicle” value in test [1] (setting [6]) is on record as “Decrease the Time Spent in REM; also recorded: difference”. In addition, the “REM sleep (total time), relative to NP rats treated with vehicle” value in test [1] (6 h EEG/EMG, i.p., CBD 20 mg/kg, rimonabant 1 mg/kg, listed as rimonabant) is listed as “reduction of REM sleep time; also recorded: decreases REM sleep”. Besides, in test [1] (setting [7]), the “REM sleep, relative to naïve animals treated with vehicle” value is “difference” and the “wakefulness, relative to naïve animals treated with vehicle” value is “difference”. Also, in test [1] (NP rats, i.p., CBD 20 mg/kg, rimonabant 1 mg/kg), the “reversal of sleep perturbations induced by neuropathic pain (sleep-wake cycle)” value is “Does not Reverse the Sleep Perturbations”. In test [3], the “time spent in NREM sleep” value is “reducing the time spent in NREM sleep and REM sleep”; the “time spent in REM sleep” value was “reducing the time spent in NREM sleep and REM sleep”; the “time spent in wakefulness” value is “dose-dependently increased the time spent in wakefulness”.

Source of the values: US20230172874A1, “USE OF CANNABIDIOL FOR THE TREATMENT OF INSOMNIA ASSOCIATED TO PAIN” (priority 2021, published 2023).
